Source: article PMC11012124, “Synthesis of Novel Triazine-Based Chalcones and 8,9-dihydro-7H-pyrimido[4,5-b][1,4]diazepines as Potential Leads in the Search of Anticancer, Antibacterial and Antifungal Agents” (International Journal of Molecular Sciences, 2024)

What was measured:
SK-MEL-5 = test: cells; settings: Homo sapiens, SK-MEL-5, 48 h
OVCAR-4 = test: cells; settings: Homo sapiens, OVCAR-4, 48 h
MDA-MB-468 = test: cells; settings: Homo sapiens, MDA-MB-468, 48 h
UO-31 = test: cells; settings: Homo sapiens, UO-31, 48 h
786-0 = test: cells; settings: Homo sapiens, 786-0, 48 h
M14 = test: cells; settings: Homo sapiens, M14, 48 h
60 cancer cell lines = test: NCI-60 one-dose screen (10 μM); assay type: cell-based; settings: Homo sapiens; one dose of 10 μM, mean over 60 cancer cell lines; read-out: Mean Growth Percent (MGP)
Description: Additionally, the mean of the growth percentages (MGP) of each compound against all the 60 cancer cell lines is also reported, which is used as one of the selection criteria to continue with tests at five concentration doses.

NCI-H226 = test: cells; settings: Homo sapiens, NCI-H226, 48 h
SK-OV-3 = test: cells; settings: Homo sapiens, SK-OV-3, 48 h
KM12 = test: cells; settings: Homo sapiens, KM12, 48 h
HOP-92 = test: cells; settings: Homo sapiens, HOP-92, 48 h
T-47D = test: cells; settings: Homo sapiens, T47D, 48 h
SN12C = test: cells; settings: Homo sapiens, 48 h
A549/ATCC = test: cells; settings: Homo sapiens, A549, 48 h
COLO 205 = test: cells; settings: Homo sapiens, COLO 205, 48 h
HT29 = test: cells; settings: Homo sapiens, HT-29, 48 h
MDA-MB-231/ATCC = test: cells; settings: Homo sapiens, MDA-MB-231, 48 h
TK-10 = test: cells; settings: Homo sapiens, TK-10, 48 h
HCT-116 = test: cells; settings: Homo sapiens, HCT-116, 48 h
A498 = test: cells; settings: Homo sapiens, A498, 48 h
SK-MEL-2 = test: cells; settings: Homo sapiens, SK-MEL-2, 48 h
NCI-H522 = test: cells; settings: Homo sapiens, NCI-H522, 48 h
OVCAR-5 = test: cells; settings: Homo sapiens, OVCAR-5, 48 h
LOX IMVI = test: cells; settings: Homo sapiens, 48 h
SF-539 = test: cells; settings: Homo sapiens, SF-539, 48 h
HL-60(TB) = test: cells; settings: Homo sapiens, HL-60, 48 h
RPMI-8226 = test: cells; settings: Homo sapiens, RPMI-8226, 48 h
SF-295 = test: cells; settings: Homo sapiens, SF-295, 48 h
NCI-H23 = test: cells; settings: Homo sapiens, NCI-H23, 48 h
UACC-257 = test: cells; settings: Homo sapiens, UACC-257, 48 h
U251 = test: cells; settings: Homo sapiens, U-251, 48 h
DU-145 = test: cells; settings: Homo sapiens, DU-145, 48 h
SNB-75 = test: cells; settings: Homo sapiens, SNB-75, 48 h
HCT-15 = test: cells; settings: Homo sapiens, HCT-15, 48 h
MCF7 = test: cells; settings: Homo sapiens, MCF7, 48 h
NCI-H460 = test: cells; settings: Homo sapiens, NCI-H460, 48 h
MOLT-4 = test: cells; settings: Homo sapiens, MOLT-4, 48 h

Q: COc1cc(/C=C/C(=O)c2ccccc2)ccc1Oc1nc(Nc2ccc(F)cc2)nc(N(C)C)n1 [21a] was tested. Which GI50 (SK-MEL-5) did it give?
A: 6.21 µM

Q: And the CC50 (SK-MEL-5; read-out: LC50)?
A: > 100 µM

Q: And the GI50 (OVCAR-4)?
A: 5.85 µM

Q: And the CC50 (OVCAR-4; read-out: LC50)?
A: > 100 µM

Q: And the GI50 (MDA-MB-468)?
A: 3.21 µM

Q: And the CC50 (MDA-MB-468; read-out: LC50)?
A: > 100 µM

Q: What about the GI50 (UO-31) of the same compound?
A: 4.4 µM

Q: What about the CC50 (UO-31; read-out: LC50) of the same compound?
A: > 100 µM

Q: What about the GI50 (786-0) of the same compound?
A: 20.5 µM

Q: What about the CC50 (786-0; read-out: LC50) of the same compound?
A: > 100 µM

Q: And the GI50 (M14)?
A: 13 µM

Q: What about the CC50 (M14; read-out: LC50) of the same compound?
A: > 100 µM

Q: What about the activity at 10 µM (60 cancer cell lines) of the same compound?
A: 24.6%

Q: And the GI50 (NCI-H226)?
A: 4.94 µM

Q: And the CC50 (NCI-H226; read-out: LC50)?
A: 64.9 µM

Q: What about the GI50 (SK-OV-3) of the same compound?
A: 48.6 µM

Q: What about the CC50 (SK-OV-3; read-out: LC50) of the same compound?
A: > 100 µM

Q: What about the GI50 (KM12) of the same compound?
A: 14.9 µM

Q: What about the CC50 (KM12; read-out: LC50) of the same compound?
A: > 100 µM

Q: And the GI50 (HOP-92)?
A: 2.08 µM

Q: What about the CC50 (HOP-92; read-out: LC50) of the same compound?
A: > 100 µM

Q: What about the GI50 (T-47D) of the same compound?
A: 3.36 µM

Q: And the CC50 (T-47D; read-out: LC50)?
A: > 100 µM

Q: And the GI50 (SN12C)?
A: 7.32 µM

Q: And the CC50 (SN12C; read-out: LC50)?
A: 54.5 µM

Q: And the GI50 (A549/ATCC)?
A: 11.7 µM

Q: And the CC50 (A549/ATCC; read-out: LC50)?
A: > 100 µM

Q: What about the GI50 (COLO 205) of the same compound?
A: 15.1 µM

Q: What about the CC50 (COLO 205; read-out: LC50) of the same compound?
A: > 100 µM

Q: What about the GI50 (HT29) of the same compound?
A: 4.36 µM

Q: And the CC50 (HT29; read-out: LC50)?
A: 59.7 µM

Q: And the GI50 (MDA-MB-231/ATCC)?
A: 6.92 µM

Q: And the CC50 (MDA-MB-231/ATCC; read-out: LC50)?
A: 56.1 µM

Q: And the GI50 (TK-10)?
A: 18 µM

Q: And the CC50 (TK-10; read-out: LC50)?
A: > 100 µM

Q: What about the GI50 (HCT-116) of the same compound?
A: 3.21 µM

Q: What about the CC50 (HCT-116; read-out: LC50) of the same compound?
A: 45.5 µM

Q: What about the GI50 (A498) of the same compound?
A: 27 µM

Q: And the CC50 (A498; read-out: LC50)?
A: > 100 µM

Q: What about the GI50 (SK-MEL-2) of the same compound?
A: 4.68 µM

Q: And the CC50 (SK-MEL-2; read-out: LC50)?
A: 63.1 µM

Q: And the GI50 (NCI-H522)?
A: 5.15 µM

Q: And the CC50 (NCI-H522; read-out: LC50)?
A: > 100 µM

Q: And the GI50 (OVCAR-5)?
A: 13.9 µM

Q: What about the CC50 (OVCAR-5; read-out: LC50) of the same compound?
A: > 100 µM

Q: And the GI50 (LOX IMVI)?
A: 1.6 µM

Q: And the CC50 (LOX IMVI; read-out: LC50, LOX IMVI, 48 h)?
A: 6.23 µM

Q: And the GI50 (SF-539)?
A: 13.8 µM

Q: And the CC50 (SF-539; read-out: LC50, SF-539, 48 h)?
A: 51.7 µM

Q: And the GI50 (HL-60(TB))?
A: 8.37 µM

Q: What about the CC50 (HL-60(TB); read-out: LC50) of the same compound?
A: > 100 µM

Q: And the GI50 (RPMI-8226)?
A: 2.83 µM

Q: What about the CC50 (RPMI-8226; read-out: LC50) of the same compound?
A: > 100 µM

Q: What about the GI50 (SF-295) of the same compound?
A: 6.89 µM

Q: What about the CC50 (SF-295; read-out: LC50) of the same compound?
A: > 100 µM

Q: And the GI50 (NCI-H23)?
A: 12.6 µM

Q: And the CC50 (NCI-H23; read-out: LC50)?
A: > 100 µM

Q: What about the GI50 (UACC-257) of the same compound?
A: 6.44 µM

Q: What about the CC50 (UACC-257; read-out: LC50) of the same compound?
A: > 100 µM

Q: And the GI50 (U251; U251, 48 h)?
A: 2.84 µM

Q: And the CC50 (U251; read-out: LC50)?
A: 60.6 µM

Q: What about the GI50 (DU-145) of the same compound?
A: 27.3 µM

Q: What about the CC50 (DU-145; read-out: LC50) of the same compound?
A: > 100 µM

Q: What about the GI50 (SNB-75) of the same compound?
A: 4.7 µM

Q: What about the CC50 (SNB-75; read-out: LC50) of the same compound?
A: > 100 µM

Q: And the GI50 (HCT-15)?
A: 3.31 µM

Q: And the CC50 (HCT-15; read-out: LC50)?
A: 36.2 µM

Q: What about the GI50 (MCF7) of the same compound?
A: 3.08 µM

Q: What about the CC50 (MCF7; read-out: LC50) of the same compound?
A: 78.2 µM

Q: What about the GI50 (NCI-H460) of the same compound?
A: 9.14 µM

Q: What about the CC50 (NCI-H460; read-out: LC50) of the same compound?
A: 93.2 µM

Q: And the GI50 (MOLT-4)?
A: 2.56 µM

Q: And the CC50 (MOLT-4; read-out: LC50)?
A: > 100 µM
